According to patent US10597388B2, “Pyridazinone herbicides” (FMC CORPORATION, priority 2014, dated 2020):

How the values were obtained:
Assay type in all cases: in vivo
[1] = system: blackgrass (Alopecurus myosuroides); assay: Test A greenhouse herbicide test, postemergence; settings: for Blackgrass plant response rating: 0 to 100 scale, 0 is no effect, 100 is complete control
In short: (§1)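 Plants grown in loam soil/sand blend pots were treated postemergence at 2 to 10 cm height, one- to two-leaf stage, with formulated test chemicals. After approximately 10 d in a greenhouse, injury was rated visually against untreated controls on a 0 to 100 scale (0 no effect, 100 complete control).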

[2] = system: galium (catchweed bedstraw, Galium aparine); assay: Test A greenhouse herbicide test, postemergence; settings: for Galium plant response rating: 0 to 100 scale, 0 is no effect, 100 is complete control
In short: as §1

[3] = system: barnyardgrass (Echinochloa crus-galli); assay: Test B flooded paddy test; settings: 250 g ai/ha, Flood; visual rating on scale of 0 to 100 where 0 is no effect and 100 is complete control; 13 to 15 d after treatment
In short: (§2)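 Plants at the 2-leaf stage were flooded to 3 cm above soil, and test compounds were applied directly into the paddy water, which was held at that depth throughout. After 13 to 15 d in a greenhouse, injury was rated visually against untreated controls on a 0–100 scale (0 no effect, 100 complete control).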

[4] = system: ducksalad (Heteranthera limosa); assay: Test B flooded paddy test; settings: 250 g ai/ha, Flood; visual rating on scale of 0 to 100 where 0 is no effect and 100 is complete control; 13 to 15 d after treatment
In short: as §2

[5] = system: rice (Oryza sativa); assay: Test B flooded paddy test; settings: 250 g ai/ha, Flood; visual rating on scale of 0 to 100 where 0 is no effect and 100 is complete control; 13 to 15 d after treatment
In short: as §2

[6] = system: sedge, umbrella (small-flower umbrella sedge, Cyperus difformis); assay: Test B flooded paddy test; settings: 250 g ai/ha, Flood; visual rating on scale of 0 to 100 where 0 is no effect and 100 is complete control; 13 to 15 d after treatment
In short: as §2

[7] = system: chickweed (common chickweed, Stellaria media); assay: Test C greenhouse herbicide test, postemergence
In short: (§3)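 Greenhouse postemergence spray on plants 2–18 cm tall; response judged visually after 13–15 d relative to untreated controls using a 0 (none) to 100 (full control) scale.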

[8] = system: oat, wild (wild oat, Avena fatua); assay: Test C greenhouse herbicide test, postemergence
In short: as §3

[9] = 125 g ai/ha, 0 to 100 scale where 0 is no effect and 100 is complete control
[10] = 500 g ai/ha, visual rating after approx. 10 d, 0 to 100 scale (0 no effect, 100 complete control)
[11] = Postemergence, 31 g ai/ha, 0 to 100 scale (0 no effect, 100 complete control)
[12] = Postemergence, 125 g ai/ha, scale 0 to 100, 0 is no effect, 100 is complete control
[13] = Postemergence, 250 g ai/ha, scale 0 to 100, 0 no effect, 100 complete control, 13 to 15 d
[14] = postemergence, 62 g ai/ha, scale 0 to 100, 0 no effect, 100 complete control
[15] = 125 g ai/ha, visual rating after approx. 10 d, 0 to 100 scale (0 no effect, 100 complete control)
[16] = Postemergence, 31 g ai/ha, scale 0 to 100 (0 no effect, 100 complete control)

| SMILES | Plant response rating, Blackgrass [1, 9] | Blackgrass plant response rating ([1]; 500 g ai/ha) | Plant response rating, Galium [2, 9] | Plant response rating, Galium [2, 10] | Plant response rating, Barnyardgrass [3] | Plant response rating, Ducksalad [4] | Plant response rating, Rice [5] | Plant response rating, Sedge, Umbrella [6] | Chickweed plant response rating [7, 11] | Plant response rating, Chickweed [7, 12] | Plant response rating, Chickweed [7, 13] | Chickweed plant response rating [7, 14] | Plant response rating, Oat, Wild [8, 12] | Plant response rating, Oat, Wild [8, 13] | Oat, Wild plant response rating [8, 14] | Galium plant response rating ([2]; 500 g ai/ha) | Oat, Wild plant response rating [8, 11] | Plant response rating, Blackgrass [1, 10] | Plant response rating, Chickweed [7, 16] | Plant response rating, Oat, Wild [8, 16] | other results |
| --- | --- | --- | --- | --- | --- | --- | --- | --- | --- | --- | --- | --- | --- | --- | --- | --- | --- | --- | --- | --- | --- |
| CC(=O)Oc1c(C#N)nn(C)c(=O)c1-c1c(C)ccc2ccccc12 [Compound 98] | 30 | 30 | 100 | 100 | 45 | 75 | 30 | 60 | 95 | 100 | 100 | 100 | 95 | 100 | 80 |  |  |  |  |  |  |
| COc1nn(C)c(=O)c(-c2c(C)sc3ccccc23)c1O [Compound 33] |  | 40 |  |  | 0 | 0 | 0 | 0 | 85 | 90 | 95 | 90 | 40 | 45 | 30 | 100 | 35 |  |  |  | Plant response rating, Blackgrass [1, 15]: 10; Plant response rating, Galium [2, 15]: 90 |
| Cc1nn(C)c(=O)c(-c2ccc(F)c3ccccc23)c1OC(=O)CC(F)(F)F [Compound 123] | 30 |  | 80 | 90 | 20 | 30 | 15 | 70 |  | 90 | 98 | 90 | 90 | 95 |  |  |  | 50 | 90 | 70 |  |
| Cc1sc2ccc(Cl)cc2c1-c1c(OS(C)(=O)=O)c(Cl)nn(C)c1=O [Compound 114] | 20 |  | 90 | 100 | 0 | 50 | 0 | 70 |  | 98 | 98 | 95 | 65 | 85 |  |  |  | 60 | 90 | 40 |  |
| C#CCOC(=O)Oc1c(C)nn(C)c(=O)c1-c1c(C)sc2ccc(C)cc12 [Compound 87] | 80 | 80 | 90 |  | 0 | 0 | 0 | 0 | 90 | 95 | 98 | 90 | 85 | 90 | 90 | 90 |  |  |  |  |  |
| CC(=O)Oc1c(C)nn(C)c(=O)c1-c1c(C)sc2c(C)cc(C)cc12 [Compound 27] |  | 90 |  |  | 30 | 30 | 40 | 80 | 95 | 100 | 100 | 100 | 95 | 100 | 95 | 100 | 85 |  |  |  | Plant response rating, Blackgrass [1, 15]: 90; Plant response rating, Galium [2, 15]: 100 |
| Cc1cc(C)c2sc(C)c(-c3c(OC(=O)OC(C)C)c(C)nn(C)c3=O)c2c1 [Compound 67] | 70 | 80 | 80 |  | 0 | 0 | 0 | 0 | 90 | 95 | 95 | 95 | 90 | 100 | 85 | 90 | 80 |  |  |  |  |
| Cc1ccc2ccccc2c1-c1c(O)cnn(C)c1=O [Compound 56] | 30 | 50 | 90 |  | 0 | 0 | 0 | 0 | 5 | 55 | 70 | 10 | 20 | 40 | 10 | 100 | 5 |  |  |  |  |
| Cc1nn(C)c(=O)c(-c2cc(F)cc3ccccc23)c1OS(C)(=O)=O [Compound 115] | 20 |  | 80 | 100 | 0 | 0 | 0 | 0 |  | 90 | 90 | 75 | 80 | 90 |  |  |  | 70 | 80 | 55 |  |
| Cc1cc(C)c2ccccc2c1-c1c(O)cnn(C)c1=O [Compound 51] | 30 | 60 | 90 |  | 0 | 0 | 0 | 0 | 50 | 70 | 90 | 55 | 5 | 10 | 5 | 100 | 0 |  |  |  |  |
| CCC(=O)Oc1c(Cl)nn(C)c(=O)c1-c1c(C)sc2ccc(Cl)cc12 [Compound 111] | 30 |  | 90 | 100 | 0 | 75 | 0 | 75 |  | 100 | 98 | 98 | 90 | 98 |  |  |  | 70 | 95 | 55 |  |
| Cc1ccc2ccccc2c1-c1c(O)c(Cl)nn(C)c1=O [Compound 125] | 70 |  | 90 | 90 | 0 | 80 | 0 | 75 |  | 95 | 95 | 95 | 95 | 95 |  |  |  | 80 | 95 | 85 |  |
